Source: ChEMBL document CHEMBL1201862, “PubChem BioAssay data set” (2004)
Calls of active or inactive are those of the source.

Legend:
[1] = molecular target: Testis-specific serine/threonine-protein kinase 2 (Homo sapiens, UniProt Q96PF2); assay type: functional;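 further: part of the Navigating the Kinome panel, target entry STK22B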
SRSF protein kinase 1 = SRSF protein kinase 1 (Homo sapiens, UniProt Q96SB4); assay type: functional;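 further: measured as one member of a kinome-wide kinase profiling panel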
[2] = molecular target: Mast/stem cell growth factor receptor Kit (Homo sapiens, UniProt P10721); assay type: functional;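 further: KIT entry within a kinase panel assay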
Chain of Mast/stem cell growth factor receptor Kit (P10721 whole entry): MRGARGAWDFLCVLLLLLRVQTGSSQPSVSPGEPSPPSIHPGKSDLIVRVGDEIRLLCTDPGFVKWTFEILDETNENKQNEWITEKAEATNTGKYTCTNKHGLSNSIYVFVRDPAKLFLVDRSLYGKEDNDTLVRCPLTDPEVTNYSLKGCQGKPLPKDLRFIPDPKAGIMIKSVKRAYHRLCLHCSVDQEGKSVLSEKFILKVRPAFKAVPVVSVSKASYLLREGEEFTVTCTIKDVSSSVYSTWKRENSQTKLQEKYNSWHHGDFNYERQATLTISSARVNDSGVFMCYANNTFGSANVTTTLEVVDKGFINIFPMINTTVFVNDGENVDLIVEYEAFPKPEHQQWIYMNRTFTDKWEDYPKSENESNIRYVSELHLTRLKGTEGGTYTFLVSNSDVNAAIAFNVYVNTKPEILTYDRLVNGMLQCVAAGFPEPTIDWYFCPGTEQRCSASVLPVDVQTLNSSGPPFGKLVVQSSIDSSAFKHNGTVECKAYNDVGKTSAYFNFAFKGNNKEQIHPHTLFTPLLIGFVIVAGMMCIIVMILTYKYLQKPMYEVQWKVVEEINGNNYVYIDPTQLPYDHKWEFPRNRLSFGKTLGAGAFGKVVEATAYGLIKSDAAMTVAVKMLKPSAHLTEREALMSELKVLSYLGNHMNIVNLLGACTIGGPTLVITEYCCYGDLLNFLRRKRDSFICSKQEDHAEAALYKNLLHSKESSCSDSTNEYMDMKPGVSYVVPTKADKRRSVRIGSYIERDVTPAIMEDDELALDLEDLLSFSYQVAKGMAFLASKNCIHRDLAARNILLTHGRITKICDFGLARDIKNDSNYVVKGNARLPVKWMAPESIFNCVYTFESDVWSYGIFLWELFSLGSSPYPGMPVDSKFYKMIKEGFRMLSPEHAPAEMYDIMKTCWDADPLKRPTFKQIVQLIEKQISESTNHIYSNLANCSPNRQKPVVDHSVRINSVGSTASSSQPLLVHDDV

[3] = molecular target: Serine/threonine-protein kinase TAO1 (Homo sapiens, UniProt Q7L7X3); assay type: functional
Chain of Serine/threonine-protein kinase TAO1 (Q7L7X3 whole entry): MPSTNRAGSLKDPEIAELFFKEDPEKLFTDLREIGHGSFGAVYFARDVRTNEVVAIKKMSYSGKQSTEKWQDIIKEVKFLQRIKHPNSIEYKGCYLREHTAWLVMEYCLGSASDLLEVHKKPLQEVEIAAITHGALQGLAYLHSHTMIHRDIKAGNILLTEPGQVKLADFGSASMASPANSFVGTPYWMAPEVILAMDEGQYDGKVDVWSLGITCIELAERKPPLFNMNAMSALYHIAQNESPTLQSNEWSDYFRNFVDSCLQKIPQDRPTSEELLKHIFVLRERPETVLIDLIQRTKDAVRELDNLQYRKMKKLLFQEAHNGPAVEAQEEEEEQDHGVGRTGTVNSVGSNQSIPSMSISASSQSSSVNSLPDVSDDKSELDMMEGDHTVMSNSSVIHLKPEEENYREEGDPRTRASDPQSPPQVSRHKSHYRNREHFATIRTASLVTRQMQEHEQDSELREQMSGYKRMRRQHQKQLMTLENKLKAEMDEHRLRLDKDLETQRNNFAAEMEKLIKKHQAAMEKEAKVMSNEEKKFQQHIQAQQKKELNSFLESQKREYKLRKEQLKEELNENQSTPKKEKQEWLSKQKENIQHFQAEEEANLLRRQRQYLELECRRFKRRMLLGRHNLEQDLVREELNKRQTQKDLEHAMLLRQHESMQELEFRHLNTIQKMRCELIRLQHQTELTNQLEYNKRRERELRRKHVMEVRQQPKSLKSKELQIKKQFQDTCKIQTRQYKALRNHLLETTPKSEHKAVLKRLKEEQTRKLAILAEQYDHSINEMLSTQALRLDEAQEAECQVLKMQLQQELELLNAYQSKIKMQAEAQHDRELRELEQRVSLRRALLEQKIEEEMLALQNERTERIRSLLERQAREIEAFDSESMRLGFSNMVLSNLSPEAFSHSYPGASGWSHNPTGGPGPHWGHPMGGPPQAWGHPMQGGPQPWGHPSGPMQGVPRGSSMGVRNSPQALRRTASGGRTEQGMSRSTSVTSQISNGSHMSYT

[4] = molecular target: Receptor-type tyrosine-protein kinase FLT3 (Homo sapiens, UniProt P36888); assay type: functional;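 further: FLT3 was tested as one member of a kinome-wide kinase panel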
[5] = molecular target: Tyrosine-protein kinase ABL1 (Homo sapiens, UniProt P00519); assay type: functional
Chain of Tyrosine-protein kinase ABL1 (P00519 whole entry): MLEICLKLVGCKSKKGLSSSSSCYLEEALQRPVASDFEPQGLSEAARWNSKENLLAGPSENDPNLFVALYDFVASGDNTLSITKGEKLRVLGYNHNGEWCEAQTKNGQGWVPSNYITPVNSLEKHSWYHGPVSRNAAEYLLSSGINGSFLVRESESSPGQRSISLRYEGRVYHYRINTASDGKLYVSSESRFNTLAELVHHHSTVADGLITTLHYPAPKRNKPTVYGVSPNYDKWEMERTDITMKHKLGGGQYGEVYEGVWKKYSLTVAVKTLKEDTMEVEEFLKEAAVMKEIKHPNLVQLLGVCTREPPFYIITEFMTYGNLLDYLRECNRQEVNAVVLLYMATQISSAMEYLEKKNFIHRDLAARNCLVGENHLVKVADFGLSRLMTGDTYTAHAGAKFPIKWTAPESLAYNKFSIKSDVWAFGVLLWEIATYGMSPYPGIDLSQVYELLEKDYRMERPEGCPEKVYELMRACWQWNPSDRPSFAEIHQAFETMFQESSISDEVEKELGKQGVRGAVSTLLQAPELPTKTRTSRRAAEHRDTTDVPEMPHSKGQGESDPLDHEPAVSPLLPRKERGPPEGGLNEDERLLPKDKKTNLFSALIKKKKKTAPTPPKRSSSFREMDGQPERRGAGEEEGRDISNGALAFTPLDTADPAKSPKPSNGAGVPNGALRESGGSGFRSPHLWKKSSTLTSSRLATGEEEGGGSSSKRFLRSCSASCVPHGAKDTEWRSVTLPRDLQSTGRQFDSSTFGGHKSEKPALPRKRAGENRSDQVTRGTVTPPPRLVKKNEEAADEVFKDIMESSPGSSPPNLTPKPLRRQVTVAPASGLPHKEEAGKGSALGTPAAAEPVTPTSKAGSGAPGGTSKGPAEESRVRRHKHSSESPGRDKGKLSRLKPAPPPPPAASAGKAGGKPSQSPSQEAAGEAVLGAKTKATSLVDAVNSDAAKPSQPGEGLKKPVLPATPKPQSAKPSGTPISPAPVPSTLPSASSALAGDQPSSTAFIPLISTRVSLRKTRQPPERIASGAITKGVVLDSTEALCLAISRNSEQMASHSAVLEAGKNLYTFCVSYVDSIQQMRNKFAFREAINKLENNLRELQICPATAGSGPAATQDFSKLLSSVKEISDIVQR

[6] = molecular target: Cyclin-dependent kinase 5 (Homo sapiens, UniProt Q00535); assay type: functional;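 further: CDK5 measured as one member of a kinase profiling panel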
Chain of Cyclin-dependent kinase 5 (Q00535 whole entry): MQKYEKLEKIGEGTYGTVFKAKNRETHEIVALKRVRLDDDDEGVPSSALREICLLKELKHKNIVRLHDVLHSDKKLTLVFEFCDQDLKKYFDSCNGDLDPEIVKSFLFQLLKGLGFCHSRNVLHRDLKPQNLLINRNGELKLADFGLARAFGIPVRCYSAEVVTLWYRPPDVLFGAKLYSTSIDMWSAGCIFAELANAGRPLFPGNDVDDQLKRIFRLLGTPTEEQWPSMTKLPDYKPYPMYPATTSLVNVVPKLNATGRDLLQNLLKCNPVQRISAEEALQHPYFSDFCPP

[7] = molecular target: Calcium/calmodulin-dependent protein kinase type 1 (Homo sapiens, UniProt Q14012); assay type: functional
Chain of Calcium/calmodulin-dependent protein kinase type 1 (Q14012 whole entry): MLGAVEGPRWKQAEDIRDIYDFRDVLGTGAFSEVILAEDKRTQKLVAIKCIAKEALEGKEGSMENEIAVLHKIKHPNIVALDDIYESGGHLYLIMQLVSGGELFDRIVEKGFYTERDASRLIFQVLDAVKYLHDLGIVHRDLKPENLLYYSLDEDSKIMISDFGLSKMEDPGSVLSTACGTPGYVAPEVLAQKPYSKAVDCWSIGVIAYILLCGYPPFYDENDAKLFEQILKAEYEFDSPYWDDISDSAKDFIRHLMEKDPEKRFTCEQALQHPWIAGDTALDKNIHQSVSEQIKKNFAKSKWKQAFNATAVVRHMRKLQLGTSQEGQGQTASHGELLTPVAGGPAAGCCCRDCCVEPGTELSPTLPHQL

[8] = molecular target: 3-phosphoinositide-dependent protein kinase 1 (Homo sapiens, UniProt O15530); assay type: functional;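 further: value comes from the Navigating the Kinome panel, PDPK1 member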
Chain of 3-phosphoinositide-dependent protein kinase 1 (O15530 whole entry): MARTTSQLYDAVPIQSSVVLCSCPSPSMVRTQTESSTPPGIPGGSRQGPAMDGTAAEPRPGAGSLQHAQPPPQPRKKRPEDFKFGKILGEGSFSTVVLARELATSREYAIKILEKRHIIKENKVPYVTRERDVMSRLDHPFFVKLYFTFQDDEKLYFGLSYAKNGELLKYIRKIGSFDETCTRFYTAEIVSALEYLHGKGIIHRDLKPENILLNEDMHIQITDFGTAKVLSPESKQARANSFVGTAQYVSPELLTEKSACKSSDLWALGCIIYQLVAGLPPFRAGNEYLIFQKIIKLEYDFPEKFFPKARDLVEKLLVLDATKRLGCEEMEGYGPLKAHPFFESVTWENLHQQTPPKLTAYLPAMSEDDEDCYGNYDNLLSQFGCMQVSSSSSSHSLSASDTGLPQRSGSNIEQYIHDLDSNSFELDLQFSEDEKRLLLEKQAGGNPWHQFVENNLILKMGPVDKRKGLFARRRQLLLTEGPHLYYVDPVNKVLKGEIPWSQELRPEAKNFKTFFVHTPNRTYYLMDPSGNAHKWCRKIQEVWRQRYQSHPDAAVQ

[9] = molecular target: Calcium/calmodulin-dependent protein kinase type II subunit alpha (Homo sapiens, UniProt Q9UQM7); test: Navigating the Kinome. Panel member name: CAMK2A; assay type: functional
[10] = molecular target: T1, RNA-binding protein pos-1 (Caenorhabditis elegans, UniProt G5EF15); test: disruptors of C. elegans POS-1 RNA interaction – biochemical, fluorescence polarization, dose response (AID 1964);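 further: purified POS-1 fused to maltose binding protein made in E. coli; potency of compounds blocking POS-1 binding to fluorescent RNA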
T1 sequence (G5EF15 whole entry): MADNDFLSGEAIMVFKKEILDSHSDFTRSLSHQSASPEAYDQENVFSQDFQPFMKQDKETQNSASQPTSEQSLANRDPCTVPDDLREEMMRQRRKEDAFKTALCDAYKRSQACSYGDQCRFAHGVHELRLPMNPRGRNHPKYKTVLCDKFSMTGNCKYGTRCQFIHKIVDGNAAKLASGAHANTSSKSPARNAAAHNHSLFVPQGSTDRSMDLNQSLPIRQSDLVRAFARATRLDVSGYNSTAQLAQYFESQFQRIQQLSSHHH

Chain of Testis-specific serine/threonine-protein kinase 2 (Q96PF2 whole entry): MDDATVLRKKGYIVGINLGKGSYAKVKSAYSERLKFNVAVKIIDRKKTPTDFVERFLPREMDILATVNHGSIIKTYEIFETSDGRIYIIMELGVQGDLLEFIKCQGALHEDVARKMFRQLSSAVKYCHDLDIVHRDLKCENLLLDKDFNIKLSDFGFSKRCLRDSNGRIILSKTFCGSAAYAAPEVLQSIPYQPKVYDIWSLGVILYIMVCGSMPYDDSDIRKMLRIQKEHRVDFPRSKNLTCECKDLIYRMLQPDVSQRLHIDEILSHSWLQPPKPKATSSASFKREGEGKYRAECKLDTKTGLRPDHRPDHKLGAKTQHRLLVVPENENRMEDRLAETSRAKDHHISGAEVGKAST

Ki [1]	Ki (SRSF protein kinase 1)	Ki [2]	Ki [3]	Ki [4]	Ki [5]	Ki [6]	Ki [7]	Ki [8]	Ki [9]	Structure (SMILES)	EC50 [10]
> 1580 nM (inactive)	> 7940 nM (inactive)	> 1260 nM (inactive)	> 6310 nM (inactive)	> 2000 nM (inactive)	> 631 nM (inactive)	> 3980 nM (inactive)	> 1000 nM (inactive)	79.4 nM (active)	> 3160 nM (inactive)	Clc1cc(NC2CCCCC2)nc(-c2c[nH]c3ncccc23)n1	–
–	–	–	–	–	–	–	–	–	–	Cc1ccc(/C=C2/C(=O)c3ccc(C(=O)O)cc3C2=O)o1	87700 nM (active)
